# Columns and labels:
# [1] = tested on: Stat3-dependent firefly luciferase reporter pLucTKS3; assay: Stat3-dependent luciferase reporter assay; format: cell-based, mouse; conditions: stable NIH3T3/v-Src/pLucTKS3, 48 h
# Method: FIGS. 3A-3D. Inhibition of Stat3-mediated gene expression by PLATINUM-401. (FIG. 3A) and (FIG. 3B) v-Src-transformed mouse fibroblasts that stably express Stat3-dependent (NIH3T3/v-Src/pLucTKS3) and Stat3-independent (NIH3T3/v-Src/pRLSRE) luciferase reporters or β-galactosidase (β-gal), as well as normal mouse fibroblast (NIH3T3) transiently transfected with pLucTKS3, pGL2-VEGF-Luc, NFkB-Luc or pLucSRE together with or without v-Src were treated with or without PLATINUM-401 for 48 h. Cytosolic extracts were then prepared from cells for luciferase and […] activities measurements. […]
# Cytosolic extract preparation and luciferase assays—Cytosolic extract preparation from fibroblasts and luciferase assays were previously described (Turkson et al., 1998; Turkson et al., 1999). […] Cells were resuspended in 0.4 ml of low-salt HEPES buffer (10 mM HEPES [pH 7.8], 10 mM KCl, 0.1 mM EGTA, 0.1 mM EDTA, 1 mM phenylmethylsulfonyl fluoride (PMSF), and 1 mM dithiothreitol (DTT)) for 15 min, lysed by the addition of 20 μl of 10% Nonidet P-40 (NP-40), and centrifuged (10,000×g, 30 s, 4° C.) to obtain the cytosolic supernatant, which was used for luciferase assays (Promega) measured with a luminometer. […]
# To further investigate the activities of PLATINUM-401, the inventors treated malignant cells and measured effects on Stat3 signaling. […]
# Cyclin D1 = Cyclin D1 detection, in situ and Western blot; format: cell-based, human; conditions: MDA-MB-435, 48 h
# Method: FIGS. 8A and 8B. Inhibition of Cyclin D1 and Bcl-xL induction by PLATINUM-401. Viral Src-transformed fibroblasts (NIH3T3/v-Src) and human breast cancer cell line MDA-MB-435 that contain constitutively-activated Stat3 were treated with or without platinum complex for 48 h. Cells were processed for immunohistochemistry, or cell lysates were prepared from cells and subjected to 5% PAGE and Western blot analysis, as indicated in “Materials and Methods.” (FIG. 8A) Detection of Cyclin D1; (FIG. 8B) Detection of Bcl-xL. Positions of Cyclin D1 and Bcl-xL proteins are shown. Beta-actin levels are shown for normalizing for equal total protein. Data are representative of 3 independent determinations.
# Western blot—Whole-cell lysates were prepared in boiling sodium dodecyl sulfate (SDS) sample-loading buffer to extract total proteins from the cytoplasm and nucleus. Equivalent amounts of total cellular protein were electrophoresed on an SDS-10% polyacrylamide gel and transferred onto nitrocellulose membranes. Probing of nitrocellulose membranes with primary antibodies and detection of horseradish peroxidase-conjugated secondary antibodies by enhanced chemiluminescence (Amersham, Piscataway, N.J.) were performed as previously described (Garcia et al., 2001; Turkson et al., 2004b; Zhang et al., 2000). […]
structure (smiles),measurement,setting,value
CC(O)CN1CCN(CC(C)O)CC1 (centres unmarked) [PLATINUM-401],induction of Stat3-dependent reporter,[1],strongly suppresses
same,Cyclin D1 level,Cyclin D1,significantly diminished
